For series [1] the following is noted: morphine, reference method; cited from earlier work.
The target in another series is T1, NPFF2 receptor (Homo sapiens, UniProt Q9Y5X5).
T1 construct: expressed in transfected cells; host or cells: HEK293
The series can be described thus: cAMP functional experiment, NPFF2 receptor (forskolin-induced cAMP accumulation). Format: cell-based. The procedure: (§1) The agonistic activity of the cyclopeptide molecule of the present invention against Mu-opioid receptor, Delta-opioid receptor, Kappa-opioid receptor, NPFF1 receptor and NPFF2 receptor was evaluated by detecting the regulation of the cyclopeptide molecule of the present invention on the intracellular accumulation of cyclic adenosine monophosphate (cAMP) induced by Forskolin in HEK293 cells stably expressing these five receptors. The experimental method was: the cells were seeded in 24 well plates with 120000 cells per well, and were cultured for more than 20 hours. At the beginning of the experiment, the culture medium in the culture dish was suck out, and then 500 μL of preheated serum-free medium containing 1 mM of IBMX was added, the mixture was incubated at 37° C. for 10 minutes. Then each 10 μL of the drug to be tested and 10 μM of forskolin (final concentration) were added to each well. The mixture was incubated at 37° C. for 30 minutes. After incubation, all the liquid was suck out from the culture dish, 500 μL of 0.2 N hydrochloric acid was added to each well, the mixture was incubated at room temperature for 30 minutes to promote cell lysis. After lysis was complete, NaOH was added to neutralize the hydrochloric acid solution used for lysis. Then all the liquid was suck out from the culture dish into centrifuge tubes, the liquid was centrifuged at 12000 rpm for 2 minutes. 50 μL was taken to a clean centrifuge tube, 100 μL of 60 μg/μL PKA was added, and 100 μL of TE cAMP buffer was added to the blank control group (B). Another 50 μL of 0.5 μ Ci[^3H]cAMP was added to each of the above centrifuge tubes, the mixture was quickly mixed and incubated at 4° C. for more than 2 hours. After incubation, another 100 μL of activated carbon suspension was added to each tube, the mixture was vortex agitated evenly, placed in an ice bath for 1 minute, centrifuged at 5000 rpm for 4 minutes. 200 μL of supernatant after centrifugation in each tube was suck out to a 24 well plate, with an additional 700 μL of scintillator liquid added per well, then the 24 well plate was sealed with adhesive film, placed for 3 hours, then placed on the scintillation instrument for measurement.
(§2) The inhibitory effect of cAMP was represented by the percentage (% control) of drug inhibition of intracellular cAMP accumulation induced by Forskolin, wherein % control=(cAMP content when treated with Forskolin−cAMP content when Forskolin co-treated with the test drug)/(cAMP content when treated with Forskolin−cAMP content when treated with solvent). The related % control data was represented by mean±S.E.M. The dose-effect relationship of the drug was statistically analyzed using a nonlinear regression model, and the IC50 values of the multi-target cyclopeptide molecule on inhibition of Forskolin induced intracellular cAMP accumulation were calculated using the statistical software GraphPad Prism version 5.0.
Background: Changes in cAMP serve as a functional read-out for many G protein-coupled receptors.

Series [2] relates to Kunming male mice. The series can be described thus: Photothermal tail flick experiment, oral administration. Format: in vivo. Conditions: tail flick; for Maximum analgesic time: oral administration at the maximum analgesic dose; for analgesic duration: oral administration. Here is the method:
(§3) Two administration methods were used: peripheral subcutaneous administration and oral administration. Subsequently, the analgesic activity of the drug was studied using an acute pain model of photothermal tail flick in mice.
1 mL sterile syringe was used for oral administration (p.o.), the pinhead was replaced with a mouse gastric lavage needle, and […] of the drug was orally administered. The skin on the neck and back of the mouse was grasped with the left hand with the abdomen facing upwards. Noted that the mouse's entire body was fixed to vertical, which was beneficial for oral gavage. A gastric lavage needle (No. 12 needle and 1 mL syringe) was held in the right hand and was inserted to the esophagus along the upper jaw which is pressed the tongue tightly from the corner of the mouse's mouth. Gastric lavage fluid can be injected when the needle inserted 2.5 cm. The inserting length of the needle should be determined through practice in advance, as there is a sense of falling into a hole after the needle is inserted. If the injection position was appropriate, it should be very smooth. […] This can cause immediate death of the mouse after gavage.
(§4) The photothermal tail flick experiment is based on the experimental method summarized by D'Amour and Smith to optimize the experimental parameters. The experiment selected Kunming male mice with body weigh 21±2 g, and ambient temperature controlled at 22±2° C. The experimental mice were allowed to drink water freely and were moved from the breeding room to the experimental area for adaptation for 30 minutes before starting the experiment. Then the mice were grab with the right hand and the tail hang freely. Then the mice's tail were placed on a radiation light source, 2-3 mm away from the mice tail. The intensity of radiation heat was adjusted to the tail flick time of mice being 3-5 s, which is the basic pain threshold of photothermal tail flick. The irradiation time of the mice tail should not exceed 10 s to prevent scalding of the mice tail, which was the maximum latency for photothermal tail flick. After administration, time points of 10, 20, 30, 45, 60, 90, 120, 180, 240, 300, 360, and 420 minutes were selected to measure the tail flick latency of mice after administration.
(§5) The analgesic effect of drugs was generally evaluated using the maximum analgesic effect MPE (%), MPE (%)=100×[(pain threshold after administration−basic pain threshold)/(10 seconds−basic pain threshold)]. 50% effective dose (ED50) refers to the corresponding drug dose that causes a 50% effect. ED50 and 95% confidence interval were calculated using MPE (%) and the drug concentration that achieves the maximum analgesic effect MPE (%) by the statistical software GraphPad Prism 5.0. The difference in analgesic effects was statistically analyzed using one-way ANOVA (Dunnett test), *P<0.05, **P<0.01, and ***P<0.001 indicated significance of the difference between the group with only drug injected and the saline group.

For a further series, the target named is T2, Kappa-opioid receptor (Homo sapiens, UniProt P41145).
T2 construct: expressed in transfected cells; host or cells: HEK293
T2 sequence (P41145 whole entry): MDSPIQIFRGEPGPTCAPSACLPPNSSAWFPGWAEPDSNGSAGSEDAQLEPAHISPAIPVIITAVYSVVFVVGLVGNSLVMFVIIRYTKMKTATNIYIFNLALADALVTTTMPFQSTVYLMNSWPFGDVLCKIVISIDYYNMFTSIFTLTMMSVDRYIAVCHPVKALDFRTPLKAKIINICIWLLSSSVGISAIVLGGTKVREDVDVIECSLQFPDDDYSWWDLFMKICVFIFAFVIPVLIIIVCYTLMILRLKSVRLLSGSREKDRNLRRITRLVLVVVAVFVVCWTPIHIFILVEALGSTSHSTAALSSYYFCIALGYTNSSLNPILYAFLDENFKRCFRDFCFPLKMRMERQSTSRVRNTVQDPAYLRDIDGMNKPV
The series can be described thus: cAMP functional experiment, Kappa-opioid receptor (forskolin-induced cAMP accumulation). Format: cell-based. Here is the method:
as §1, §2

Series [3] concerns Kunming male mice. The series can be described thus: Photothermal tail flick experiment, subcutaneous injection. Format: in vivo. Particulars: photothermal tail flick. The procedure: as §3
Subcutaneous administration on the back was chosen for subcutaneous administration (s.c.). A sterile 1 mL syringe was used and the drug with the volume of 0.1 mL/10 g was injected for administration. The back skin was grasped with the right hand, the needle was tilted in, and the drug was injected subcutaneously into the mouse's back. After the needle was inserted, shook it left and right, and observe to confirm that the needle had indeed entered the subcutaneous area to prevent the needle from puncturing the skin and leaking the drug.
as §4, §5

A further series deals with T3, Delta-opioid receptor (Homo sapiens, UniProt P41143).
T3 construct: expressed in transfected cells; host or cells: HEK293
T3 sequence (P41143 whole entry): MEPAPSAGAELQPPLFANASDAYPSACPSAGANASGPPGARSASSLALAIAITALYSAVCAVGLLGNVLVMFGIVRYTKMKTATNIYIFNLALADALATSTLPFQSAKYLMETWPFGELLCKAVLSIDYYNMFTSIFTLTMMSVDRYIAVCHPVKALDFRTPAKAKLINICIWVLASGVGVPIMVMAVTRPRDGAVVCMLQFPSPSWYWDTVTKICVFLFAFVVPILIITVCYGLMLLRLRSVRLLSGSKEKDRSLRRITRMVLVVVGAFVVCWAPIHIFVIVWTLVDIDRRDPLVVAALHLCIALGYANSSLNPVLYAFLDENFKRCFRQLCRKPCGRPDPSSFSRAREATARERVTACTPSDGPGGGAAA
Kind of series: cAMP functional experiment, Delta-opioid receptor (forskolin-induced cAMP accumulation). Format: cell-based. The procedure: as §1, §2

Another series addresses T4, NPFF1 receptor (Homo sapiens, UniProt Q9GZQ6).
T4 construct: expressed in transfected cells; host or cells: HEK293
The series can be described thus: cAMP functional experiment, NPFF1 receptor (forskolin-induced cAMP accumulation). Format: cell-based. The procedure:
as §1, §2

Another series has as its target T5, Mu-opioid receptor (Homo sapiens, UniProt P35372).
T5 construct: expressed in transfected cells; host or cells: HEK293
Kind of series: cAMP functional experiment, Mu-opioid receptor (forskolin-induced cAMP accumulation). Format: cell-based. Here is the method:
as §1, §2

Bridge positions count the residues as written; N and C are the ends. Square brackets hold non-standard residues; d marks the D form. Peptide text beside a SMILES is read from it. NMeF = CN[C@@H](Cc1ccccc1)C(=O)O; Cha = N[C@@H](CC1CCCCC1)C(=O)O; dDab = NCC[C@@H](N)C(=O)O; Aib = CC(C)(N)C(=O)O; βAla = NCCC(=O)O

T1 sequence (Q9Y5X5 whole entry): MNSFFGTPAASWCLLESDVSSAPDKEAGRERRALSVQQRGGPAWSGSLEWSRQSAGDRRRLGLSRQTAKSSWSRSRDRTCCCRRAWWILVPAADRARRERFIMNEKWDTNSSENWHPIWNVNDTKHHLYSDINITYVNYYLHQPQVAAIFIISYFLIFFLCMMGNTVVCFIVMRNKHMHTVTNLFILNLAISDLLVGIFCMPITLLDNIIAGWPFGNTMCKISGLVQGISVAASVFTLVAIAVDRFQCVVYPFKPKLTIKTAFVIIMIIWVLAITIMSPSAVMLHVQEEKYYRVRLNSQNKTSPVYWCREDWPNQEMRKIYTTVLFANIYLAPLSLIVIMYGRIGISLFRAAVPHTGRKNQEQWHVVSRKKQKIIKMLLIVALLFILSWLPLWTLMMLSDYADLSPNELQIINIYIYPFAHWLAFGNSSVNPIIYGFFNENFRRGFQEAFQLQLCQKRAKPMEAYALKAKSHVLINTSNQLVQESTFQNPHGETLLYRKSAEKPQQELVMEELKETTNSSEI
T5 sequence (P35372 whole entry): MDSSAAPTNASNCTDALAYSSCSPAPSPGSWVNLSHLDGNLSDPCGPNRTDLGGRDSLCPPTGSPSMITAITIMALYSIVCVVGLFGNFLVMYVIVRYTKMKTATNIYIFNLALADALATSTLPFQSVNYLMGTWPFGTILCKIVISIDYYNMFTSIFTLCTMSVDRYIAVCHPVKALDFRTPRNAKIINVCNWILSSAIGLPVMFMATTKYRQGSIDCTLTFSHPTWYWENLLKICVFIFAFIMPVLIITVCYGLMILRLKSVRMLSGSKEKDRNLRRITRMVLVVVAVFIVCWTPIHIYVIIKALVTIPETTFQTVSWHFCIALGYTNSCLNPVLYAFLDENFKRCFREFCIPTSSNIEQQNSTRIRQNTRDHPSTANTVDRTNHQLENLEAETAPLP
T4 sequence (Q9GZQ6 whole entry): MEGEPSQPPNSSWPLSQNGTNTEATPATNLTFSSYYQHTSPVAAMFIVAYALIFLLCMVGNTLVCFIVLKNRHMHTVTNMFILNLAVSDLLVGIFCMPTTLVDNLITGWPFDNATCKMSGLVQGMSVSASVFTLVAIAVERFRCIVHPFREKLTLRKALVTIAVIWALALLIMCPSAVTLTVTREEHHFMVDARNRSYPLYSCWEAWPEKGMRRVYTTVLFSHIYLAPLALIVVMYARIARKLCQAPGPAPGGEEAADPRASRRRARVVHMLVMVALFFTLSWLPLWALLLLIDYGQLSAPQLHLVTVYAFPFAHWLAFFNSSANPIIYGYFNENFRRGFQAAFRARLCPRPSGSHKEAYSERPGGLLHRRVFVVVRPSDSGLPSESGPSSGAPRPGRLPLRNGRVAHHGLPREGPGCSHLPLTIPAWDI

As to `CN1CC[C@]23c4c5ccc(O)c4O[C@H]2[C@@H](O)C=C[C@H]3[C@H]1C5` [morphine], in [1], the “analgesic ED50” value was 1.68 mg/kg.

`CN1C(=O)CNC(=O)[C@H](NC(=O)[C@@H](N)Cc2ccc(O)cc2)CCC(=O)NCCCC[C@@H](C(=O)N2CCC[C@H]2C(=O)N[C@@H](CCC(N)=O)C(=O)N[C@@H](CCCNC(=N)N)C(=O)N[C@@H](Cc2ccccc2)C(N)=O)NC(=O)[C@@H]1Cc1ccccc1` [Compound 7, Tyr-c^[2,5][D-Glu-Gly-NMe-Phe-Lys]-Pro-Gln-Arg-Phe-NH2] (H-Y[dE]G[NMeF]KPQRF-NH2; lactam 2-5) registered a melting point of 182 to 184 °C.

For `CN1C(=O)CNC(=O)[C@H](NC(=O)[C@@H](N)Cc2ccc(O)cc2)CCNC(=O)C[C@@H](C(=O)N2CCC[C@H]2C(=O)N[C@@H](CCC(N)=O)C(=O)N[C@@H](CCCNC(=N)N)C(=O)N[C@@H](Cc2ccccc2)C(N)=O)NC(=O)[C@@H]1Cc1ccccc1` [Compound 9, Tyr-c^[2,5][D-Dab-Gly-NMe-Phe-Asp]-Pro-Gln-Arg-Phe-NH2] (H-Y[dDab]G[NMeF]DPQRF-NH2; lactam 2-5), the IC50 at NPFF2 receptor turned out to be 265 nM; at Kappa-opioid receptor, 71.2 nM; against Delta-opioid receptor it was 95.1 nM; against NPFF1 receptor it was 180 nM; on Mu-opioid receptor it was 37.9 nM. In addition, the Maximum analgesic time in the series on Kunming male mice [2] amounted to 30 min. In the series with Kunming male mice [2], this compound gave an analgesic duration of 240 min. The “ED50 value (95% confidence interval), analgesic activity” value (“ED50 value (95% confidence interval)” for short) with Kunming male mice [3] is listed as 16.0 (14.4 to 17.6) μg/kg.

`CN1C(=O)CNC(=O)[C@H](NC(=O)[C@@H](N)Cc2ccc(O)cc2)CCCCNC(=O)C[C@@H](C(=O)N2CCC[C@H]2C(=O)NCCC(=O)N[C@@H](CCCNC(=N)N)C(=O)N[C@@H](CC2CCCCC2)C(N)=O)NC(=O)[C@@H]1Cc1ccccc1` [Compound 13, Tyr-c[D-Lys-Gly-NMe-Phe-Asp]-Pro-β-Ala-Arg-Cha-NH2] (H-Y[dK]G[NMeF]DP[βAla]R[Cha]-NH2; lactam 2-5) showed a melting point of 175 to 177 °C.

Turning to `CN1C(=O)CNC(=O)[C@H](NC(=O)[C@@H](N)Cc2ccc(O)cc2)CCCCNC(=O)C[C@@H](C(=O)N2CCC[C@H]2C(=O)NC(C)(C)C(=O)N[C@@H](CCCNC(=N)N)C(=O)N[C@@H](CC2CCCCC2)C(N)=O)NC(=O)[C@@H]1Cc1ccccc1` [Compound 14, Tyr-c^[2,5][D-Lys-Gly-NMe-Phe-Asp]-Pro-Aib-Arg-Cha-NH2] (H-Y[dK]G[NMeF]DP[Aib]R[Cha]-NH2; lactam 2-5), the melting point is 196 to 198 °C.

As for `CN1C(=O)CNC(=O)[C@H](NC(=O)[C@@H](N)Cc2ccc(O)cc2)CCCCNC(=O)CC[C@@H](C(=O)N2CCC[C@H]2C(=O)N[C@@H](CCC(N)=O)C(=O)N[C@@H](CCCNC(=N)N)C(=O)N[C@@H](Cc2ccccc2)C(N)=O)NC(=O)[C@@H]1Cc1ccccc1` [Compound 2, Tyr-c^[2,5][D-Lys-Gly-NMe-Phe-Glu]-Pro-Gln-Arg-Phe-NH2] (H-Y[dK]G[NMeF]EPQRF-NH2; lactam 2-5), the IC50 against NPFF2 receptor came out at 83.1 nM; at Kappa-opioid receptor, 29.5 nM; at Delta-opioid receptor, 36.4 nM; against NPFF1 receptor, 189 nM; against Mu-opioid receptor it was 48.8 nM. The Maximum analgesic time with Kunming male mice [2] was 30 min. In the series on Kunming male mice [2], this compound showed an analgesic duration of 240 min. The “ED50 value (95% confidence interval)” value with Kunming male mice [3] is given as 17.9 (15.3 to 20.9) μg/kg.

On to `CN1C(=O)CNC(=O)[C@H](NC(=O)[C@@H](N)Cc2ccc(O)cc2)CC(=O)NCCCC[C@@H](C(=O)N2CCC[C@H]2C(=O)N[C@@H](CCC(N)=O)C(=O)N[C@@H](CCCNC(=N)N)C(=O)N[C@@H](Cc2ccccc2)C(N)=O)NC(=O)[C@@H]1Cc1ccccc1` [Compound 6, Tyr-c^[2,5][D-Asp-Gly-NMe-Phe-Lys]-Pro-Gln-Arg-Phe-NH2] (H-Y[dD]G[NMeF]KPQRF-NH2; lactam 2-5), for which the IC50 on NPFF2 receptor came to 303 nM; on Kappa-opioid receptor, 58 nM; against Delta-opioid receptor it was 74.2 nM; against NPFF1 receptor, 222 nM; against Mu-opioid receptor it was 66.3 nM. This compound gave a Maximum analgesic time with Kunming male mice [2] of 30 min. In addition, the analgesic duration in the series on Kunming male mice [2] is listed as 240 min. In addition, the “ED50 value (95% confidence interval)” value in the series with Kunming male mice [3] is 15.8 (14.6 to 17.1) μg/kg.

As usually defined, the melting point is the temperature, or range, at which the solid turns liquid. Usually IC50 stands for the point on the concentration scale where inhibition reaches its midpoint. A low value points to greater potency.

(Values after patent US20240166690A1, “MULTI-TARGET CY[…] FOR OPIOID/NEUROPEPTIDE FF RECEPTORS, AND PREPARATION THEREFOR AND APPLICATION THEREOF” (SHANGHAI TIANCI LIFE SCIENCE DEVELOPMENT CO., LTD., priority 2021, published 2024).)
